The source of these data is patent US5149777A, “Human insulin analogs and preparations containing them” (Novo Nordisk A/S, priority 1991, dated 1992).

For data set [1], the target named is T1, insulin receptors of isolated rat adipocytes (Rattus norvegicus, UniProt P15127).
T1 construct: endogenous in cells; host or cells: isolated rat adipocytes
Put plainly: Binding affinity to insulin receptors of isolated rat adipocytes. The settings on record: relative to semisynthetic human insulin, potency set to 100%.
Description: (§1) The biological activity in vitro was determined by measuring the binding affinity to the insulin receptors of isolated rat adipocytes and hepatocytes essentially as described in J. Gliemann, S. Gammeltoft: Diabetologia 10, 105-113 (1974).

Data set [2] has as its target insulin receptors of isolated rat hepatocytes (Rattus norvegicus, UniProt P15127).
Description: as §1

Sequence of insulin receptors of isolated rat hepatocytes (P15127 27-759 limits assumed): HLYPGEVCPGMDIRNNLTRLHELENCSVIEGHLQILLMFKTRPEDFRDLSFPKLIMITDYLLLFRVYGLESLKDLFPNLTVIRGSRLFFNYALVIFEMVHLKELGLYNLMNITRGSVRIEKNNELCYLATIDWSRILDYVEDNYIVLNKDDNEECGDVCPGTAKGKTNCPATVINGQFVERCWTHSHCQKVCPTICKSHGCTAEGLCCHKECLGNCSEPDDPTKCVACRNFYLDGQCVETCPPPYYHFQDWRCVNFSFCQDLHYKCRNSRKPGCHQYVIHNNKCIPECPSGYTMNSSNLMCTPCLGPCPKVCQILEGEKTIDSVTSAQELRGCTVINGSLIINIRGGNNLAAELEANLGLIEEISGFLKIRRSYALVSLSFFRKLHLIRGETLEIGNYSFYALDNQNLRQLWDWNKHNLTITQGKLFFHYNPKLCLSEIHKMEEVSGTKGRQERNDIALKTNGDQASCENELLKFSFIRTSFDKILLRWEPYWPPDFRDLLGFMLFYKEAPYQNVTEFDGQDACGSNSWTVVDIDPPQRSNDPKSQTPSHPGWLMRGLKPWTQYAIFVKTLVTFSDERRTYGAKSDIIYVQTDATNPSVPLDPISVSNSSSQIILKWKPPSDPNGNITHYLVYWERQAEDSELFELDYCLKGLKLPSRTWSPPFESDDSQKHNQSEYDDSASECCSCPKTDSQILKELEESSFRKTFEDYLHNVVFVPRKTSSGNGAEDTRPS
Sequence of insulin receptors of isolated rat hepatocytes (P15127 764-1383 partner limits assumed): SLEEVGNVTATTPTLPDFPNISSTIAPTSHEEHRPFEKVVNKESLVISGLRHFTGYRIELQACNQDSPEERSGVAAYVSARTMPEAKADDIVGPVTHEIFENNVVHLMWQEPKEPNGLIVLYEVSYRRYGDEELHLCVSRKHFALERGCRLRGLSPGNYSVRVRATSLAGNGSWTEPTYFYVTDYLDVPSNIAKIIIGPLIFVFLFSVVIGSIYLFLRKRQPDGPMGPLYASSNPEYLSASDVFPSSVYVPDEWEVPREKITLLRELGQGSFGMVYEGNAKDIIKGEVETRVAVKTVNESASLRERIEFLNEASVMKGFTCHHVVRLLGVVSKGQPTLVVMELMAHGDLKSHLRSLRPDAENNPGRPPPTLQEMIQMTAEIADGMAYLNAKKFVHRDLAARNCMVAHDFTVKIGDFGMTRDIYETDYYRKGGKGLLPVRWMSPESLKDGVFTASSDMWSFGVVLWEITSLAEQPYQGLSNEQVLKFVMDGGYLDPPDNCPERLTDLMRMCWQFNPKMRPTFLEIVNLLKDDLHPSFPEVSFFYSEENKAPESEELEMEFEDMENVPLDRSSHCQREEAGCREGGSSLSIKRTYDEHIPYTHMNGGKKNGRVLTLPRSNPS
T1 sequence (P15127 27-759 limits assumed): as the sequence (P15127 27-759 limits assumed) above
T1 sequence (P15127 764-1383 partner limits assumed): as the sequence (P15127 764-1383 partner limits assumed) above

[His^B25 ]-human insulin: the “Biological activity in vitro (binding affinity), Adipocytes” value (“Biological activity in vitro … Adipocytes” below) in data set [1] was found to be 150%. Also, the “Biological activity in vitro (binding affinity), Hepatocytes” value (from here on “Biological activity in vitro … Hepatocytes”) in data set [2] is given as 142%.

As to “[His^B25, Asp^B28 ]-des[Thr^B30 ]-human insulin”, the “Biological activity in vitro … Adipocytes” value in data set [1] is recorded as 130%. For the same substance, in data set [2], the “Biological activity in vitro … Hepatocytes” value is 135%.

As for [Tyr^B25 ]-human insulin, the “Biological activity in vitro … Adipocytes” value in data set [1] is 356%. In data set [2], the “Biological activity in vitro … Hepatocytes” value amounted to 222%.

On to [Tyr^B25, Asp^B28 ]-human insulin, for which, in data set [1], the “Biological activity in vitro … Adipocytes” value is reported as 201%. Further, the “Biological activity in vitro … Hepatocytes” value in data set [2] was 138%.
